Nine compounds from patent publication US7915299B2, “2-(2-hydroxyphenyl)benzimidazoles useful for treating obesity and diabetes” (High Point Pharmaceuticals, LLC, priority 2006, dated 2011) can be followed below.

In turn, `Cc1c(Cl)cc(C(C)(C)C)c(O)c1-c1nc2cc(S(=O)(=O)C(F)(F)F)ccc2[nH]1` [Example 1, 6-tert-Butyl-4-chloro-3-methyl-2-(5-trifluoromethanesulfonyl-1H-benzimidazol-2-yl)-phenol] gave a melting point of 253 to 254 °C.

Take `Cc1ccc(C(C)(C)C)c(O)c1-c1nc2cc(C#N)ccc2[nH]1` [Example 4, 2-(3-tert-Butyl-2-hydroxy-6-methyl-phenyl)-1H-benzimidazole-5-carbonitrile]: the melting point was in the range of 212 to 215 °C.

`CCN(CC)S(=O)(=O)c1ccc2[nH]c(-c3c(C)c(Cl)cc(C(C)(C)C)c3O)nc2c1` [Example 6, 2-(3-tert-Butyl-5-chloro-2-hydroxy-6-methyl-phenyl)-1H-benzimidazole-5-sulfonic acid diethylamide]: the melting point was 277 to 278 °C.

In turn, `Cc1c(Cl)cc(C(C)(C)C)c(O)c1-c1nc2cc(OC(F)(F)F)ccc2[nH]1` [Example 7, 6-tert-Butyl-4-chloro-3-methyl-2-(5-trifluoromethoxy-1H-benzimidazol-2-yl)-phenol] returned a melting point of 243 to 244 °C.

In turn, `COc1ccc(C(C)(C)C)c(O)c1-c1nc2cc(S(=O)(=O)C(F)(F)F)ccc2[nH]1` [Example 8, 6-tert-Butyl-3-methoxy-2-(5-trifluoromethanesulfonyl-1H-benzimidazol-2-yl)-phenol] displayed a melting point of 55 to 56 °C.

Compound `CSc1cc(C(C)(C)C)c(O)c(-c2nc3cc(S(=O)(=O)C(F)(F)F)ccc3[nH]2)c1C` [Example 9, 6-tert-Butyl-3-methyl-4-methylsulfanyl-2-(5-trifluoromethanesulfonyl-1H-benzimidazol-2-yl)-phenol] showed a melting point of 210 to 211 °C.

The compound `Cc1c(F)cc(C(C)(C)C)c(O)c1-c1nc2ccc(S(=O)(=O)C(F)(F)F)cc2[nH]1` [Example 11, 6-tert-Butyl-4-fluoro-3-methyl-2-(5-trifluoromethanesulfonyl-1H-benzimidazol-2-yl)-phenol] gave a melting point of 245 to 247 °C.

On to `Cc1ccc(C(C)(C)C)c(O)c1-c1nc2ccc(S(=O)(=O)C(F)(F)F)cc2[nH]1` [Example 12, 6-tert-Butyl-3-methyl-2-(5-trifluoromethanesulfonyl-1H-benzimidazol-2-yl)-phenol], for which the melting point was 218 to 220 °C.

As for `Cc1c(Br)cc(C(C)(C)C)c(O)c1-c1nc2cc(OC(F)(F)F)ccc2[nH]1` [Example 13, 6-tert-Butyl-4-bromo-3-methyl-2-(5-trifluoromethoxy-1H-benzimidazol-2-yl)-phenol], the melting point fell in the range of 235 to 236 °C.

What is called melting point is the temperature of the solid-liquid transition.
